# Tests used:
# [1] = tested on: rat; details: Prenatal developmental toxicity study, sprague dawley, Oral, Gavage/Intubation, dose end: 15 GD, group: maternal
# [2] = tested on: rat; details: Subchronic oral toxicity in rodents, sprague dawley, Gavage/Intubation, dose end: 30 day, group: systemic, systemic / in life observation / clinical signs / soft stools + systemic / in life observation / clinical signs / urine, discoloration
# [3] = tested on: rat; details: Multigenerational reproductive toxicity study, sprague dawley, Oral, Gavage/Intubation, dose end: 1 generation, group: parental
# [4] = tested on: rat; details: Multigenerational reproductive toxicity study, sprague dawley, Oral, Gavage/Intubation, dose end: 1 generation
# [5] = tested on: primate; details: Subchronic oral toxicity in nonrodent, macaque, Gavage/Intubation, dose end: 90 day, group: systemic, systemic / in life observation / clinical signs / defecation (diarrhea) + systemic / in life observation / clinical signs / emesis
# [6] = tested on: rabbit; details: Prenatal developmental toxicity study; new zealand white; Oral; Gavage/Intubation; dose end: 18 GD; group: maternal; systemic / in life observation / body weight / body weight gain + systemic / in life observation / clinical signs / [other] + systemic / in …
# [7] = tested on: mouse; details: Subchronic oral toxicity in rodents, b6c3f1, Gavage/Intubation, dose end: 14 week, group: systemic
# [8] = tested on: mouse; details: Carcinogenicity; b6c3f1; Oral; Gavage/Intubation; dose end: 2 year; group: systemic; systemic / pathology microscopic / bone marrow / hyperplasia + systemic / pathology microscopic / liver / hypertrophy + systemic / pathology…
# [9] = tested on: rat; details: Subchronic oral toxicity in rodents, fischer, Gavage/Intubation, dose end: 14 week
# [10] = tested on: rat; details: Carcinogenicity; fischer; Oral; Gavage/Intubation; dose end: 2 year; group: systemic; systemic / pathology microscopic / kidney / nephropathy + systemic / pathology microscopic / liver / clear cell focus + systemic / pathology…
# [11] = tested on: dog; details: Subchronic oral toxicity in nonrodent, beagle, Feed, dose end: 13 week, group: systemic, systemic / pathology microscopic / liver / infiltration cellular + systemic / pathology microscopic / liver / necrosis + systemic / …
# [12] = tested on: rat; details: Subchronic oral toxicity in rodents, other, Feed, dose end: 3 month, group: systemic
# [13] = tested on: rat; details: Prenatal developmental toxicity study, other, Oral, Gavage/Intubation, dose end: 15 GD
# [14] = tested on: mouse; details: Carcinogenicity; other; Oral; Feed; dose end: 18 month; group: systemic; systemic / in life observation / body weight / body weight + systemic / in life observation / body weight / body weight gain + systemic / in…
# [15] = tested on: rabbit; details: Prenatal developmental toxicity study, chinchilla, Oral, Gavage/Intubation, dose end: 19 GD
# [16] = tested on: dog; details: Chronic toxicity; beagle; Oral; Feed; dose end: 12 month; group: systemic; systemic / in life observation / body weight / body weight gain + systemic / in life observation / food consumption / food consumption + …
# [17] = tested on: rat; details: Prenatal developmental toxicity study; wistar; Injection; Intraperitoneal; dose end: 18 GD; group: maternal; reproductive / reproductive performance / resorptions / resorptions + reproductive / reproductive performance / reproductive performance …
# [18] = tested on: rat; details: Prenatal developmental toxicity study; wistar; Injection; Intraperitoneal; dose end: 18 GD; group: developmental; developmental / developmental malformation / placenta / size + systemic / in life observation / body weight / fetal weight
# [19] = tested on: rabbit; details: Prenatal developmental toxicity study, new zealand white, Injection, Intravenous, dose end: 15 GD
# [20] = tested on: rat; details: Prenatal developmental toxicity study; sprague dawley; Injection; Intraperitoneal; dose end: 20 GD; group: maternal; reproductive / reproductive performance / reproductive performance other / runts + systemic / in life observation / body weight / body …
# [21] = tested on: rat; details: Subchronic oral toxicity in rodents, fischer, Feed, dose end: 13 week, group: systemic, systemic / clinical chemistry / alanine aminotransferase (alt/sgpt) / alanine aminotransferase (alt/sgpt) + systemic / clinical chemistry / …
# [22] = systemic / in life observation / clinical signs / salivation + systemic / in life observation / clinical signs / soft stools + systemic / in…
# [23] = systemic / clinical chemistry / albumin / albumin + systemic / clinical chemistry / albumin-globulin ratio / albumin-globulin ratio + …
# [24] = systemic / clinical chemistry / cholesterol / cholesterol
# [25] = group: offspring, systemic / in life observation / body weight / offspring (pup) weight
# [26] = group: parental, systemic / in life observation / clinical signs / [other]
# [27] = group: parental, systemic / in life observation / clinical signs / [other] + systemic / in life observation / body weight / body weight gain + systemic / in …
# [28] = systemic / hematology / heinz body / heinz body + systemic / hematology / methemoglobin / methemoglobin + systemic / in life observation / …
# [29] = systemic / organ weight / liver / absolute + systemic / organ weight / liver / relative to body weight + systemic / pathology microscopic / …
# [30] = group: maternal, reproductive / reproductive performance / estrous cycle / abnormal
# [31] = group: systemic, systemic / clinical chemistry / alanine aminotransferase (alt/sgpt) / alanine aminotransferase (alt/sgpt) + systemic / clinical chemistry / …
# [32] = systemic / pathology microscopic / urinary bladder / hyperplasia + systemic / clinical chemistry / bilirubin / total bilirubin
# [33] = systemic / pathology microscopic / urinary bladder / hyperplasia + systemic / pathology microscopic / kidney / atrophy + systemic / …
# [34] = group: developmental, developmental / developmental malformation / bone / bipartite ossification + developmental / developmental malformation / bone / dumbbell …
# [35] = group: maternal, systemic / in life observation / body weight / body weight gain + systemic / in life observation / clinical signs / odorous urine + systemic…
# [36] = group: developmental, developmental / developmental malformation / bone / unossified
# [37] = group: maternal, systemic / in life observation / mortality / mortality + systemic / in life observation / clinical signs / reduced motor activity + systemic…
# [38] = group: developmental, developmental / developmental malformation / bone / [other] + developmental / developmental malformation / brain / hydrocephaly + …
# [39] = group: maternal, reproductive / reproductive performance / resorptions / resorptions
# [40] = group: maternal, reproductive / reproductive performance / resorptions / resorptions + reproductive / offspring survival early / live fetuses / live fetuses
smiles,measurement,setting,value
O=C(O)c1c(Cl)c(Cl)c(C(=O)O)c(Cl)c1Cl [Chlorthal],LOAEL,[1]; systemic / in life observation / clinical signs / salivation + systemic / in life observation / clinical signs / soft stools,2500 mg/kg/day
same,LEL,[1]; [22],2500 mg/kg/day
same,NEL,[1]; [22],1250 mg/kg/day
same,NOAEL,[1]; [22],1250 mg/kg/day
same,LEL,[2],2000 mg/kg/day
same,LOAEL,[2],2000 mg/kg/day
same,NEL,[2],500 mg/kg/day
same,NOAEL,[2],500 mg/kg/day
O=S(=O)([O-])C(F)(F)C(F)(F)C(F)(F)C(F)(F)C(F)(F)C(F)(F)F.[K+] [PFHS-K],LOAEL,[3]; [23],> 10 mg/kg/day
same,NOAEL,[3]; [23],≥ 10 mg/kg/day
same,LEL,[3]; [24],0.3 mg/kg/day
same,NEL,[3]; [24],< 0.3 mg/kg/day
COc1ccc2c(c[n+](C)c3c4cc5c(cc4ccc23)OCO5)c1OC.C[n+]1cc2c3c(ccc2c2ccc4cc5c(cc4c21)OCO5)OCO3.[Cl-].[Cl-] [Chelerythrine chloride mixture with sanguinarine chloride],LEL,[4]; [25],100 mg/kg/day
same,LOAEL,[4]; [25],100 mg/kg/day
same,NEL,[4]; [25],30 mg/kg/day
same,NOAEL,[4]; [25],30 mg/kg/day
same,LEL,[4]; [26],30 mg/kg/day
same,LOAEL,[4]; [26],30 mg/kg/day
same,NEL,[4]; [27],10 mg/kg/day
same,NOAEL,[4]; [27],10 mg/kg/day
same,LEL,[5],10 mg/kg/day
same,LOAEL,[5],10 mg/kg/day
same,NEL,[5],< 10 mg/kg/day
same,NOAEL,[5],< 10 mg/kg/day
same,LEL,[6],25 mg/kg/day
same,LOAEL,[6],25 mg/kg/day
same,NEL,[6],15 mg/kg/day
same,NOAEL,[6],15 mg/kg/day
"Cc1ccc(N(C)C)cc1 [N,N,4-Trimethylaniline]",LOAEL,[7]; [28],> 250 mg/kg/day
same,NOAEL,[7]; [28],≥ 250 mg/kg/day
same,LEL,[7]; [29],15 mg/kg/day
same,NEL,[7]; [29],< 15 mg/kg/day
same,LEL,[8],6 mg/kg/day
same,LOAEL,[8],6 mg/kg/day
same,NEL,[8],< 6 mg/kg/day
same,NOAEL,[8],< 6 mg/kg/day
same,LEL,[9]; [30],125 mg/kg/day
same,LOAEL,[9]; [30],> 1000 mg/kg/day
same,NEL,[9]; [30],62.5 mg/kg/day
same,NOAEL,[9]; [30],≥ 1000 mg/kg/day
same,LEL,[9]; [31],62.5 mg/kg/day
same,LOAEL,[9]; [31],> 1000 mg/kg/day
same,NEL,[9]; [31],< 62.5 mg/kg/day
same,NOAEL,[9]; [31],≥ 1000 mg/kg/day
same,LEL,[10],6 mg/kg/day
same,LOAEL,[10],> 60 mg/kg/day
same,NEL,[10],< 6 mg/kg/day
same,NOAEL,[10],≥ 60 mg/kg/day
CCCCCC(C)OC(=O)COc1ccc(Cl)c2cccnc12 (stereo not drawn) [Cloquintocet-mexyl],LEL,[11],30.2 mg/kg/day
same,LOAEL,[11],30.2 mg/kg/day
same,NEL,[11],3.3 mg/kg/day
same,NOAEL,[11],3.3 mg/kg/day
same,LEL,[12]; [32],63.9 mg/kg/day
same,LOAEL,[12]; [32],63.9 mg/kg/day
same,NEL,[12]; [33],9.66 mg/kg/day
same,NOAEL,[12]; [33],9.66 mg/kg/day
same,LEL,[13]; [34],400 mg/kg/day
same,LOAEL,[13]; [34],400 mg/kg/day
same,NEL,[13]; [34],100 mg/kg/day
same,NOAEL,[13]; [34],100 mg/kg/day
same,LEL,[13]; [35],400 mg/kg/day
same,LOAEL,[13]; [35],400 mg/kg/day
same,NEL,[13]; [35],100 mg/kg/day
same,NOAEL,[13]; [35],100 mg/kg/day
same,LEL,[14],520 mg/kg/day
same,LOAEL,[14],520 mg/kg/day
same,NEL,[14],102 mg/kg/day
same,NOAEL,[14],102 mg/kg/day
same,LEL,[15]; [36],60 mg/kg/day
same,LOAEL,[15]; [36],> 300 mg/kg/day
same,NEL,[15]; [36],10 mg/kg/day
same,NOAEL,[15]; [36],≥ 300 mg/kg/day
same,LOAEL,"[15]; group: maternal, systemic / in life observation / mortality / mortality",300 mg/kg/day
same,LEL,[15]; [37],300 mg/kg/day
same,NEL,[15]; [37],60 mg/kg/day
same,NOAEL,[15]; [37],60 mg/kg/day
same,LEL,[16],196 mg/kg/day
same,LOAEL,[16],196 mg/kg/day
same,NEL,[16],43 mg/kg/day
same,NOAEL,[16],43 mg/kg/day
CN(Cc1cnc2nc(N)nc(N)c2n1)c1ccc(C(=O)N[C@@H](CCC(=O)O)C(=O)O)cc1 [Methotrexate],LEL,[17],0.5 mg/kg/day
same,LOAEL,[17],> 2 mg/kg/day
same,NEL,[17],< 0.5 mg/kg/day
same,NOAEL,[17],≥ 2 mg/kg/day
same,LEL,[18],0.5 mg/kg/day
same,LOAEL,[18],> 0.5 mg/kg/day
same,NEL,[18],< 0.5 mg/kg/day
same,NOAEL,[18],≥ 0.5 mg/kg/day
same,LEL,[19]; [38],19.2 mg/kg/day
same,LOAEL,[19]; [38],> 19.2 mg/kg/day
same,NOAEL,[19]; [38],≥ 19.2 mg/kg/day
same,LEL,[19]; [39],9.6 mg/kg/day
same,NEL,[19]; [39],4.8 mg/kg/day
same,LOAEL,[19]; [40],> 19.2 mg/kg/day
same,NOAEL,[19]; [40],≥ 19.2 mg/kg/day
same,LEL,[20],0.5 mg/kg/day
same,LOAEL,[20],> 2 mg/kg/day
same,NEL,[20],< 0.5 mg/kg/day
same,NOAEL,[20],≥ 2 mg/kg/day
CC(C)CCCCCOC(=O)c1nc(Cl)c(Cl)c(N)c1Cl [Picloram-isoctyl],LEL,[21],220 mg/kg/day
same,LOAEL,[21],220 mg/kg/day
same,NEL,[21],73 mg/kg/day
same,NOAEL,[21],73 mg/kg/day
